# Assay results reported in patent publication US20160183526A1, “FUNGICIDAL COMPOSITIONS” (Dow AgroSciences LLC, priority 2014, published 2016).
# Tests used:
# Format in all cases: physicochemical
# [1] = Approximate relative solubility of active ingredients in organic solvents at ambient temperature
# Description: The approximate solubility of Compound A was determined by mixing a known mass of the active ingredient with an increasing mass of each solvent at ambient temperature. […] The solubility of Compound A in the solvents used in this screening procedure was generally classified within the following concentration ranges: […]
# [2] = Accelerated storage stability of Compound A in liquid compositions, 2 weeks at 54° C. (HPLC); conditions: 2 weeks 54° C.
# Description: The test compositions were prepared in a manner similar to that described in Example 1 using one or more of Compound A, prothioconazole, pyraclostrobin, benzyl acetate, and AMD 810, and a third solvent chosen from cyclohexanone, acetophenone, 2-heptanone, 2-heptanol, oleyl alcohol or 2-ethylhexanol.
# [3] = Solubility of Compound A and prothioconazole in benzyl acetate/AMD810/cyclohexanone blends at 10° C.; conditions: one week
# Description: A total of 20 g of each solvent blend was prepared per sample. For example, one of the blends (Blend 4) was prepared by combining cyclohexanone 0.2 (4 g), benzyl acetate 0.2 (4 g) and AMD810 0.6 (12 g). To Blend 4 were added amounts of Compound A and prothioconazole technical active ingredients to achieve saturation concentrations of each. The samples were then stored at 10° C. for one week and then were analysed for soluble active ingredient content.
# [4] = Solubility of a mixture of Compound A and prothioconazole in benzyl acetate/AMD810 blends at 10° C. (HPLC); conditions: both actives saturated
# Description: A study of the Compound A and prothioconazole solubility in blends of benzyl acetate/AMD810 was conducted. To each solvent blend both actives were added until each was saturated and the resulting mixtures were then stored at 10° C. until equilibrium was obtained. Aliquots of the supernatant layer were taken from each sample, filtered (0.45 μm mesh) and analyzed by HPLC to determine the solution concentration of each active in the blends.
# [5] = Approximate relative solubility of active ingredients in organic solvents at ambient temperature; remark: listed apart in the source
structure (smiles),measurement,setting,value
"COc1ccnc(C(=O)N[C@H]2COC(=O)[C@H](Cc3ccccc3)[C@@H](OC(=O)C(C)C)[C@H](C)OC2=O)c1OCOC(=O)C(C)C [Compound A, propanoic acid, 2-methyl-, [[4-methoxy-2-[[[(3S,7R,8R,9S)-9-methyl-8-(2-methyl-1-oxopropoxy)-2,6-dioxo-7-(phenylmethyl)-1,5-dioxonan-3-yl]amino]carbonyl]-3-pyridinyl]oxy]methyl ester]",Compound A content of clear solution,[1]; 0.2 g Compound A mixed with 1.38 g cyclohexanone,12.6 % w/w
same,Relative Solubility of Compound A,[1]; in 2-ethylhexanol,Very Low (<3.0)
same,Relative Solubility of Compound A,[1]; in Alkyl naphthalene mixture,Very Low (<3.0)
same,Relative Solubility of Compound A,[1]; in Benzyl acetate,High (>8.4)
same,Relative Solubility of Compound A,[1]; in Cyclohexanone,High (>8.4)
same,Relative Solubility of Compound A,[1]; in Isoparaffin,Very Low (<3.0)
same,Relative Solubility of Compound A,[1]; in Isopropyl benzoate,Medium (8.4 to 5.6)
same,Relative Solubility of Compound A,[1]; in Methyl oleate,Very Low (<3.0)
same,Relative Solubility of Compound A,[1]; in Methyl-5-(Dimethylamino)-2-Methyl-5-Oxopentanoate,High (>8.4)
same,Relative Solubility of Compound A,"[1]; in Pentanedioic acid, 2-methyl-1, 5-dimethyl ester",Medium (8.4 to 5.6)
same,Relative Solubility of Compound A,[1]; in Tributoxyethyl phosphate,Low (5.6 to 3.0)
same,Compound A after Storage (% retention),"[2]; wt %: Compound A 3.4, AMD 810 96.0",49^ % retention
same,Compound A after Storage (% retention),"[2]; wt %: Compound A 4.1, pyraclostrobin 5.2, benzyl acetate 37.0, AMD 810 20.0, cyclohexanone 8.2, emulsifier blend 14.7",93^2 % retention
same,Compound A after Storage (% retention),"[2]; wt %: Compound A 4.9, benzyl acetate 94.1",85^ % retention
same,Compound A after Storage (% retention),"[2]; wt %: Compound A 4.9, prothioconazole 7.4, benzyl acetate 46.8, AMD 810 25.2, no third solvent, emulsifier blend 14.7",91^2 % retention
same,Compound A after Storage (% retention),"[2]; wt %: Compound A 4.9, pyraclostrobin 5.0, benzyl acetate 48.4, AMD 810 26.0, no third solvent, emulsifier blend 14.7",92^2 % retention
same,Compound A after Storage (% retention),"[2]; wt %: Compound A 4.9, pyraclostrobin 6.3, benzyl acetate 41.2, AMD 810 22.2, cyclohexanone 9.8",98^ % retention
same,Compound A after Storage (% retention),"[2]; wt %: Compound A 4.9, pyraclostrobin 6.3, benzyl acetate 44.4, AMD 810 23.9, 2-ethyl hexanol 4.9, emulsifier blend 14.7",96^2 % retention
same,Compound A after Storage (% retention),"[2]; wt %: Compound A 4.9, pyraclostrobin 6.3, benzyl acetate 44.4, AMD 810 23.9, 2-heptanol 4.9, emulsifier blend 14.7",94^2 % retention
same,Compound A after Storage (% retention),"[2]; wt %: Compound A 4.9, pyraclostrobin 6.3, benzyl acetate 44.4, AMD 810 23.9, 2-heptanone 4.9, emulsifier blend 14.7",93^2 % retention
same,Compound A after Storage (% retention),"[2]; wt %: Compound A 4.9, pyraclostrobin 6.3, benzyl acetate 44.4, AMD 810 23.9, acetophenone 4.9, emulsifier blend 14.7",94^2 % retention
same,Compound A after Storage (% retention),"[2]; wt %: Compound A 4.9, pyraclostrobin 6.3, benzyl acetate 44.4, AMD 810 23.9, oleyl alcohol 4.9, emulsifier blend 14.7",92^2 % retention
same,Compound A after Storage (% retention),"[2]; wt %: Compound A 5.0, pyraclostrobin 6.4, benzyl acetate 40.9, AMD 810 22.0, 2-ethyl hexanol 10.0",95^ % retention
same,Compound A after Storage (% retention),"[2]; wt %: Compound A 7.7, pyraclostrobin 9.8, benzyl acetate 37.1, AMD 810 20.0, cyclohexanone 9.6",97^ % retention
same,Compound A after Storage (% retention),"[2]; wt %: Compound A 7.8, pyraclostrobin 9.9, benzyl acetate 36.7, AMD 810 19.8, 2-ethyl hexanol 9.7",97^ % retention
same,Compound A after Storage (% retention),"[2]; wt %: Compound A 12.0, cyclohexanone 85.7",96^ % retention
same,Compound A Solubility @ 10° C.,[3]; Blend 1: cyclohexanone 0/benzyl acetate 0/AMD810 1 (weight fraction),3.3 % w/w
same,Compound A Solubility @ 10° C.,[3]; Blend 2: cyclohexanone 0/benzyl acetate 0.2/AMD810 0.8 (weight fraction),4.3 % w/w
same,Compound A Solubility @ 10° C.,[3]; Blend 3: cyclohexanone 0.2/benzyl acetate 0/AMD810 0.8 (weight fraction),4.5 % w/w
same,Compound A Solubility @ 10° C.,[3]; Blend 4: cyclohexanone 0.2/benzyl acetate 0.2/AMD810 0.6 (weight fraction),6.2 % w/w
same,Compound A Solubility @ 10° C.,[3]; Blend 5: cyclohexanone 0/benzyl acetate 0.4/AMD810 0.6 (weight fraction),6.5 % w/w
same,Compound A Solubility @ 10° C.,[3]; Blend 6: cyclohexanone 0.2/benzyl acetate 0.4/AMD810 0.4 (weight fraction),10.5 % w/w
same,Compound A Solubility @ 10° C.,[3]; Blend 7: cyclohexanone 0/benzyl acetate 0.6/AMD810 0.4 (weight fraction),11 % w/w
same,Compound A Solubility @ 10° C.,[3]; Blend 8: cyclohexanone 0/benzyl acetate 0.8/AMD810 0.2 (weight fraction),12 % w/w
same,Compound A Solubility @ 10° C.,[3]; Blend 10: cyclohexanone 0.2/benzyl acetate 0.6/AMD810 0.2 (weight fraction),13.6 % w/w
same,Compound A Solubility @ 10° C.,[3]; Blend 11: cyclohexanone 0/benzyl acetate 1/AMD810 0 (weight fraction),14.3 % w/w
same,Compound A Solubility @ 10° C.,[3]; Blend 12: cyclohexanone 0.2/benzyl acetate 0.8/AMD810 0 (weight fraction),15.2 % w/w
same,Compound A Solubility at 10° C.,[4]; benzyl acetate 0 wt % in blend with AMD810,3.3 % w/w
same,Compound A Solubility at 10° C.,[4]; benzyl acetate 20 wt % in blend with AMD810,4.3 % w/w
same,Compound A Solubility at 10° C.,[4]; benzyl acetate 40 wt % in blend with AMD810,6.5 % w/w
same,Compound A Solubility at 10° C.,[4]; benzyl acetate 60 wt % in blend with AMD810,11.0 % w/w
same,Compound A Solubility at 10° C.,[4]; benzyl acetate 80 wt % in blend with AMD810,12.0 % w/w
same,Compound A Solubility at 10° C.,[4]; benzyl acetate 100 wt % in blend with AMD810,14.3 % w/w
same,Relative Solubility of Compound A,[5]; in 2-ethylhexyl benzoate,Very Low (<3.0)
same,Relative Solubility of Compound A,[5]; in 2-ethylhexyl lactate,Very Low (<3.0)
same,Relative Solubility of Compound A,[5]; in 2-heptanone,Medium (8.4 to 5.6)
same,Relative Solubility of Compound A,[5]; in Benzyl alcohol,High (>8.4)
same,Relative Solubility of Compound A,[5]; in Butyl benzoate,Medium (8.4 to 5.6)
same,Relative Solubility of Compound A,[5]; in Butyl lactate,Medium (8.4 to 5.6)
same,Relative Solubility of Compound A,[5]; in Butylene carbonate,Very Low (<3.0)
same,Relative Solubility of Compound A,[5]; in Di-n-butyl carbonate,Very Low (<3.0)
same,Relative Solubility of Compound A,[5]; in Diethylene glycol monoethyl ether,Low (5.6 to 3.0)
same,Relative Solubility of Compound A,[5]; in Ethyl Diglycol Acetate,Low (5.6 to 3.0)
same,Relative Solubility of Compound A,[5]; in Methyl salicylate,High (>8.4)
same,Relative Solubility of Compound A,"[5]; in N,N dimethyl fatty acid amides",Low (5.6 to 3.0)
same,Relative Solubility of Compound A,[5]; in N-formyl morpholine and propylene carbonate,High (>8.4)
same,Relative Solubility of Compound A,[5]; in Polyethylene glycol,Very Low (<3.0)
same,Relative Solubility of Compound A,[5]; in Polypropylene glycol,Very Low (<3.0)
same,Relative Solubility of Compound A,[5]; in Propylene carbonate,Very Low (<3.0)
same,Relative Solubility of Compound A,[5]; in Soybean oil,Very Low (<3.0)
same,Relative Solubility of Compound A,[5]; in Sulfolane,High (>8.4)
same,Relative Solubility of Compound A,"[5]; in dimethyl esters of adipic, glutaric and succinic acids",Low (5.6 to 3.0)
